Measurements from patent US5616563A, “Glutathione N-hydroxycarbamoyl thioesters and method of inhibiting neoplastic growth” (University of Maryland Baltimore Campus, priority 1994, dated 1997).
Each block holds one compound with its values, some of them ahead of it.

Assays:
[1] = biological target: bovine liver glyoxalase II (Bos taurus, UniProt Q3B7M2); assay: Substrate and inhibition studies with bovine liver glyoxalase II; settings: for Vm (rel.): relative to Vm for S-D-lactoylglutathione
Method: The standard errors for Vm and Km were obtained by analysis of the initial rate data using the HYPER program of Cleland.
^a HEPES buffer (100 mM, pH 7.4), 25° C.
^b Listed values are relative to Vm for SD-lactoylglutathione.
^c Inhibition constants obtained from using the enediol analogs as

[2] = of substituent R; cited from earlier work
[3] = test system: Human Leukemia 60 (HL60) cells; assay: Growth inhibition and kill of human leukemia 60 cells; assay type: cell-based; settings: HL60, 72 hr. incubation; for IC50: Homo sapiens, HL-60, read-out: GI (concentration for 50% cell growth inhibition)
Method: The observation that compounds 2 and 6(c) inhibit tumor cell growth, but were not strongly cytotoxic to tumor cells at the concentrations tested, prompted the synthesis of diethyl esters of compounds 6(a), 6(b), and 6(c). These derivatives were then tested with human leukemia cells (HL60 cells) grown in RPMI/fetal calf serum medium at 37° C.
^c Concentration for 50% cell kill.

Ovarian Cancer (SK-OV-3) = assay: NCI tumor cell growth inhibition, ovarian cancer SK-OV-3
From the text: (§1) ^a Concentration for 50% cell growth inhibition versus nodrug
(§2) ^b Concentration for total cell growth inhibition versus nodrug

CNS Cancer (SNB-75) = assay: NCI tumor cell growth inhibition, CNS cancer SNB-75
From the text: as §1, §2

Renal Cancer (ACHN) = assay: NCI tumor cell growth inhibition, renal cancer ACHN
From the text: as §1, §2

Colon Cancer (KMZOLZ) = assay: NCI tumor cell growth inhibition, colon cancer KMZOLZ
From the text: as §1, §2

[4] = test system: Non-Small Cell Lung Cancer (HOP-18); assay: NCI tumor cell growth inhibition, non-small cell lung cancer HOP-18
From the text: as §1, §2

Melanoma (UACC-62) = assay: NCI tumor cell growth inhibition, melanoma UACC-62
From the text: as §1, §2

[5] = HEPES buffer (100 mM, pH 7.4), 25° C.
[6] = Homo sapiens, SK-OV-3, read-out: inhibition of cell growth
[7] = Homo sapiens, 48 h, read-out: GI (concentration for 50% cell growth inhibition)
[8] = Homo sapiens, read-out: inhibition of cell growth
[9] = Homo sapiens, UACC-62, read-out: inhibition of cell growth

Compound: N[C@@H](CCC(=O)N[C@@H](CSC(=O)N(O)c1ccccc1)C(=O)NCC(=O)O)C(=O)O [Compound 6a, S-(N-Hydroxy N-Phenylcarbamoyl) Glutathione]
- Ki [1]: 11 ± 1.2 µM
- Km ([1]; as substrate, HEPES buffer (100 mM, pH 7.4), 25° C.): 13 ± 2 µM
- Vm (rel.) [1, 5]: (0.46 ± 0.01) × 10^-5
- π (Hansch hydrophobicity constant) [2]: 2.13
- LC50 (concentration for 50% cell kill) [3]: > 1000 µM
- TGI (concentration for total cell growth inhibition) [3]: > 1000 µM
- IC50 [3]: ~100 µM

- Ki [1]: 3.4 ± 0.8 µM
- Vm (rel.) [1, 5]: (1.5 ± 0.3) × 10^-5
Compound: N[C@@H](CCC(=O)N[C@@H](CSC(=O)N(O)c1ccc(Cl)cc1)C(=O)NCC(=O)O)C(=O)O [Compound 6b, S-(N-Hydroxy-N-4-chlorophenylcarbamoyl) glutathione]
- π (Hansch hydrophobicity constant) [2]: 3.04
- LC50 (concentration for 50% cell kill) [3]: > 1000 µM
- TGI (concentration for total cell growth inhibition) [3]: > 1000 µM
- IC50 [3]: ~100 µM

Compound: N[C@@H](CCC(=O)N[C@@H](CSC(=O)N(O)c1ccc(Br)cc1)C(=O)NCC(=O)O)C(=O)O [Compound 6c, S-(N-Hydroxy-N-4-bromophenylcarbamoyl) glutathione]
- Ki [1]: 1.2 ± 0.4 µM
- Vm (rel.) [1, 5]: (2.1 ± 0.4) × 10^-5
- IC50 (Ovarian Cancer (SK-OV-3); Homo sapiens, SK-OV-3, 48 h, read-out: GI (concentration for 50% cell growth inhibition)): 32 µM
- inhibition at 1 µM (Ovarian Cancer (SK-OV-3); [6]): ~40%
- inhibition at 100 µM (Ovarian Cancer (SK-OV-3); [6]): > 80%
- inhibition of cell growth (Ovarian Cancer (SK-OV-3); SK-OV-3, 10^-5): about 30%
- LC50 (concentration for 50% cell kill) (Ovarian Cancer (SK-OV-3); SK-OV-3, 48 hrs. incubation): > 1000 µM
- TGI (concentration for total cell growth inhibition) (Ovarian Cancer (SK-OV-3); SK-OV-3, 48 hrs. incubation): ~ 250 μM
- inhibition of cell growth (CNS Cancer (SNB-75); CNS human cancer cells, 10^-6 M and 10^-5 M): about 20%
- IC50 (CNS Cancer (SNB-75); Homo sapiens, SNB-75, 48 h, read-out: GI (concentration for 50% cell growth inhibition)): 63 µM
- inhibition at 100 µM (CNS Cancer (SNB-75); Homo sapiens, SNB-75, read-out: inhibition of cell growth): 60%
- LC50 (concentration for 50% cell kill) (CNS Cancer (SNB-75); SNB-75, 48 hrs. incubation): > 1000 µM
- TGI (concentration for total cell growth inhibition) (CNS Cancer (SNB-75); SNB-75, 48 hrs. incubation): ~ 1000 μM
- LC50 (concentration for 50% cell kill) (Renal Cancer (ACHN); 48 hrs. incubation): > 1000 µM
- TGI (concentration for total cell growth inhibition) (Renal Cancer (ACHN); 48 hrs. incubation): ~ 200 μM
- IC50 (Renal Cancer (ACHN); [7]): 25 µM
- inhibition at 10 µM (Renal Cancer (ACHN); [8]): 30%
- inhibition at 100 µM (Renal Cancer (ACHN); [8]): ~95%
- π (Hansch hydrophobicity constant) [2]: 3.25
- IC50 (Colon Cancer (KMZOLZ); [7]): 40 µM
- inhibition at 100 µM (Colon Cancer (KMZOLZ); [8]): 80%
- inhibition of cell growth (Colon Cancer (KMZOLZ); KMZOL2, 10^-6 and 10^-5): about 10%
- LC50 (concentration for 50% cell kill) (Colon Cancer (KMZOLZ); KMZOLZ, 48 hrs. incubation): > 1000 µM
- TGI (concentration for total cell growth inhibition) (Colon Cancer (KMZOLZ); KMZOLZ, 48 hrs. incubation): ~ 320 μM
- cell growth inhibition ([4]; HOP-18, 10^-6 to 10^-5 M): about 15%
- LC50 (concentration for 50% cell kill) ([4]; HOP-18, 48 hrs. incubation): > 1000 µM
- TGI (concentration for total cell growth inhibition) ([4]; HOP-18, 48 hrs. incubation): ~ 250 μM
- IC50 ([4]; Homo sapiens, HOP-18, 48 h, read-out: GI (concentration for 50% cell growth inhibition)): 40 µM
- inhibition at 100 µM ([4]; Homo sapiens, HOP-18, read-out: cell growth inhibition): ~80%
- LC50 (concentration for 50% cell kill) [3]: ~ 300 μM
- TGI (concentration for total cell growth inhibition) [3]: 63 µM
- IC50 [3]: 20 µM
- IC50 (Melanoma (UACC-62); Homo sapiens, UACC-62, 48 h, read-out: GI (concentration for 50% cell growth inhibition)): 126 µM
- inhibition at 10 µM (Melanoma (UACC-62); [9]): ~20%
- inhibition at 100 µM (Melanoma (UACC-62); [9]): 50%
- inhibition of cell growth (Melanoma (UACC-62); UACC-62, 10^-6 M and lower concentrations): minimal inhibition
- LC50 (concentration for 50% cell kill) (Melanoma (UACC-62); UACC-62, 48 hrs. incubation): > 1000 µM
- TGI (concentration for total cell growth inhibition) (Melanoma (UACC-62); UACC-62, 48 hrs. incubation): > 1000 µM
